Assay results as given in US20060063759A1, “Tricyclic steroid hormone nuclear receptor modulators” (priority 2002, published 2006).

What was measured:
human MR = molecular target: T1, human MR (Homo sapiens, UniProt P08235); assay: Mineralocorticoid Receptor Binding Assay ([3H]-aldosterone); details: [3H]-aldosterone binding, human MR expressed in Sf9 cells; read-out: MR Ki
T1 construct: The full length human MR gene is cloned from a human kidney or human brain cDNA library; His tag from the pAcHLT vector (own knowledge); made in house; host or cells: Sf9 insect cells (baculovirus, pAcHLT transfer vector)
T1 sequence (P08235 1-984): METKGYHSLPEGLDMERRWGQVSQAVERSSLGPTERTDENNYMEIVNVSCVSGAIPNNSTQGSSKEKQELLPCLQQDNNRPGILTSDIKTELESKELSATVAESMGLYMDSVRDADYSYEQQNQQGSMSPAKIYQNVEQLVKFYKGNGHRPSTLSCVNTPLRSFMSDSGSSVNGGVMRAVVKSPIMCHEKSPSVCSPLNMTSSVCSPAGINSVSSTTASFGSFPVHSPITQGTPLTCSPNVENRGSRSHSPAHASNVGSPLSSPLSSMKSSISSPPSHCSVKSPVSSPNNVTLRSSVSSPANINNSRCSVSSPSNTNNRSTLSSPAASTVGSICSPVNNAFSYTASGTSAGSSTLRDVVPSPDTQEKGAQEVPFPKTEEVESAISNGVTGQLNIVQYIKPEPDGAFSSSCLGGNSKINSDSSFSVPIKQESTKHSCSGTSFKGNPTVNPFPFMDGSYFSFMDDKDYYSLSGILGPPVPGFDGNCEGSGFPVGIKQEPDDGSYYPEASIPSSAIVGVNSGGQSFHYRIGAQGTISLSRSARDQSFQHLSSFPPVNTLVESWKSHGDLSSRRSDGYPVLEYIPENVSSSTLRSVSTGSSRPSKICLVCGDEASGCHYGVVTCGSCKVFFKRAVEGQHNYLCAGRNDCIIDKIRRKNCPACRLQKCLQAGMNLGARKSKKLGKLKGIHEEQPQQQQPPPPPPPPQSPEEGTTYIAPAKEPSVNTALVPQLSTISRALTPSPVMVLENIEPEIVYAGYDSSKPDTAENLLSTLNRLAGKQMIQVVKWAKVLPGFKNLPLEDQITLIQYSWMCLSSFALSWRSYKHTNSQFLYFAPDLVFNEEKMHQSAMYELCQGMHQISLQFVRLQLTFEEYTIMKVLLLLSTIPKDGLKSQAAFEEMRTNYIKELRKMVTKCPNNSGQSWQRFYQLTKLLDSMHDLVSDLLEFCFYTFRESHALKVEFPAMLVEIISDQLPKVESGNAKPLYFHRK
Procedure, shortened: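 Lysate supernatant of Sf9 cells expressing full-length human MR (20-25 μg protein) was incubated with 0.5 nM [3H]-aldosterone and test compound in molybdate/Tris/phosphate/glycerol buffer, pH 7.5, ~16 h at 4 °C. Bound ligand was filtered and counted by scintillation; IC50 is the concentration halving [3H]-aldosterone binding.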

glucocorticoid receptor = molecular target: T2, glucocorticoid receptor (Homo sapiens, UniProt P04150); assay: Glucocorticoid Receptor Binding Assay ([3H]-dexamethasone, A549 cell extract); details: [3H]-dexamethasone binding, read-out: GR Ki
T2 construct: containing 50-200 ug of A549 cell extract and 1.86 nM [^3H]-dexamethasone; host or cells: A549 human lung epithelial cells (sonicated cell extract)
T2 sequence (P04150 1-777): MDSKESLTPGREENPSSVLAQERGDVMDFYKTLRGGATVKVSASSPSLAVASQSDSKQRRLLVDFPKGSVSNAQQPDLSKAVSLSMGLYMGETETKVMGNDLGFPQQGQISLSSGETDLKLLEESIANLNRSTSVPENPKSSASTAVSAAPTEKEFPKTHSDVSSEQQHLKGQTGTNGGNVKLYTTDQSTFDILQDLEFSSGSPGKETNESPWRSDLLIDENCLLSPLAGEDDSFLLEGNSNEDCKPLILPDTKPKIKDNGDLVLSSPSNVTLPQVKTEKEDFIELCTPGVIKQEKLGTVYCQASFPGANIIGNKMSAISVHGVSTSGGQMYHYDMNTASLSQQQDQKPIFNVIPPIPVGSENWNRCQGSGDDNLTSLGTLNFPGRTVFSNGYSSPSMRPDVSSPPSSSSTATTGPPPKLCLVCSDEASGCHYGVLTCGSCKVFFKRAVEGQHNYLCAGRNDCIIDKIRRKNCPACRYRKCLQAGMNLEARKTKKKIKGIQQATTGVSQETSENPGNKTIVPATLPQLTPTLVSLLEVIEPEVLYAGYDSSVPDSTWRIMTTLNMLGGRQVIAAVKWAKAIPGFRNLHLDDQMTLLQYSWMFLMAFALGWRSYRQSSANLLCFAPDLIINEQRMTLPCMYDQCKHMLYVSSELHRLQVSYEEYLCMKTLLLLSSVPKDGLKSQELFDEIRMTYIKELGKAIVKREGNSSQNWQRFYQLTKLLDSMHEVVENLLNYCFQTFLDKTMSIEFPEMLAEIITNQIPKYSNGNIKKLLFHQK
Procedure, shortened: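 A549 cell extract (50–200 ug) incubated with 1.86 nM [3H]-dexamethasone and test compound for 16 h at 4 °C in Tris-HCl pH 7.2 buffer with glycerol and molybdate. Unbound radioligand removed by dextran-coated charcoal, then supernatant bound counts measured by scintillation.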

[1] = in combination with standard CHF therapy, patients suffering from advanced CHF; cited from earlier work

Ki (human MR) | Ki (glucocorticoid receptor) | melting point | Compound | reduced cardiac related mortality [1] | reduced frequency of hospitalization [1]
< 500 nM | < 1000 nM | 257 °C | O=c1[nH]c2ccc(C=C3c4ccc(F)cc4CCc4cc(F)ccc43)cc2[nH]1 [Example 437, 5-(2,8-difluoro-10,11-dihydro-dibenzo[a,d]cyclohepten-5-ylidenemethyl)-1,3-dihydro-benzoimidazol-2-one] |  | 
 |  |  | CC(=O)S[C@@H]1CC2=CC(=O)CC[C@]2(C)[C@H]2CC[C@@]3(C)[C@@H](CC[C@@]34CCC(=O)O4)[C@H]12 [spironolactone] | 30% | 35%
